Assays:
[1] = target: T1, NEP (neutral endopeptidase EC.3.4.24.11), native enzyme isolated from kidneys (Homo sapiens, UniProt P08473); assay: Assay of NEP peptidase activity (fluorogenic peptide substrate), IC50 determination; type: biochemical; conditions: read-out: activity against NEP expressed as an IC50
T1 construct: NEP is isolated from kidneys following the method described by Kenny and Booth; from tissue
Experimental: Production of Native NEP Enzyme:
NEP is isolated from kidneys following the method described by Kenny and Booth (Booth, A. G. & Kenny, A. J. (1974) Biochem. J. 142, 575-581).
Assay of SEP or NEP Peptidase Activity
The peptidase activity of SEP or NEP is measured by monitoring its ability to proteolyse the synthetic peptide substrate Rhodamine green-Gly-Gly-dPhe-Leu-Arg-Arg-Val-Cys(QSY7)-βAla-NH2:
Reagents for the assay are first prepared as follows:
A substrate solution is made up by diluting a 2 mM/100% DMSO Rhodamine green-Gly-Gly-dPhe-Leu-Arg-Arg-Val-Cys(QSY7)-βAla-NH2 stock solution in 50 mM HEPES buffer pH7.4 (Sigma, UK) at a concentration of 2 μM.
An aliquot of SEP or NEP enzyme described above is thawed then diluted in 50 mM HEPES, pH7.4 containing 1 EDTA free protease inhibitor cocktail tablet (Roche Diagnostics, UK) per 25 ml. […]
(§1) In a black 384 well microtitre plate, 15 μl of enzyme solution is added to 15 μl of 4% DMSO solution. […] Following incubation a fluorescence measurement is taken (Ex485/Em538). BMG galaxy fluorescence reader (BMG Lab technologies, Offenberg, Germany).
(§2) The proteolytic activity of the enzyme corresponds to the fluorescence of the sample minus the fluorescence of the non-specific background blank.
(§3) A fluorescence measurement taken from 60 μl of product in a well on an identical microtitre plate may be taken. […]

[2] = target: T2, Recombinant SEP (soluble secreted endopeptidase) (Homo sapiens, UniProt Q495T6); assay: Assay of SEP peptidase activity (fluorogenic peptide substrate), IC50 determination; type: biochemical; conditions: ratio of SEP to NEP inhibition
T2 construct: made in house
T2 sequence (Q495T6 75-779 limits assumed): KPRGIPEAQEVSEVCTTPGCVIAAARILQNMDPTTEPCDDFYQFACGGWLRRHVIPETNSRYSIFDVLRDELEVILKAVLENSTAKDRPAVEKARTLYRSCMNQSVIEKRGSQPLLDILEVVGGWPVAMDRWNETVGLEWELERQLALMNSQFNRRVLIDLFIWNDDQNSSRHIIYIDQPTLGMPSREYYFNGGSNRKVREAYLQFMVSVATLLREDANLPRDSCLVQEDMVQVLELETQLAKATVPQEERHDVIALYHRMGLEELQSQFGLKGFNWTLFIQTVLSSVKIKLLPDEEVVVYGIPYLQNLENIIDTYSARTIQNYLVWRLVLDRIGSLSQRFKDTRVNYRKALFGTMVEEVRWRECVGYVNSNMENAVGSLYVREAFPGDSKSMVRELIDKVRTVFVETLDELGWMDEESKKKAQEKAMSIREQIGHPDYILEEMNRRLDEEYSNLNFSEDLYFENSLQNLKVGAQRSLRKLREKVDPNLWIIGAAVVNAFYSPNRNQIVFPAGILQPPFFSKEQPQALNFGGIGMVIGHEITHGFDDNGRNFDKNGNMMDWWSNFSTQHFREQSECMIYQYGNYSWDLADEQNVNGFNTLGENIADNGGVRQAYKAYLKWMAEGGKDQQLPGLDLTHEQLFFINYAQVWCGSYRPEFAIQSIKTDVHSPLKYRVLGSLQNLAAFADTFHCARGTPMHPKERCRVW
Experimental: Recombinant SEP enzyme is produced using one of two alternative methods:
Method 1: A culture of Chinese Hamster Ovary (CHO) cells is transfected with the plasmid NCIMB deposit number 41110 using the lipofectamine method as described in the lipofectamine reagent protocol (Invitrogen Ltd, Paisley, UK). The cell media is harvested at 24 or 48 hours post transfection, and cleared of cell debris by centrifugation at 3000 g for 5 min. The media is then dialyzed overnight at 4° C. against 50 mM HEPES pH7.4/10% glycerol, using a “slide a lyser” from Pierce and Warner, Chester UK. The dialyzed sample is then frozen in aliquots and stored under liquid nitrogen. […]
The peptidase activity of SEP or NEP is measured by monitoring its ability to proteolyse the synthetic peptide substrate Rhodamine green-Gly-Gly-dPhe-Leu-Arg-Arg-Val-Cys(QSY7)-βAla-NH2: […]
as §1, §2, §3

T1 sequence (P08473 whole entry): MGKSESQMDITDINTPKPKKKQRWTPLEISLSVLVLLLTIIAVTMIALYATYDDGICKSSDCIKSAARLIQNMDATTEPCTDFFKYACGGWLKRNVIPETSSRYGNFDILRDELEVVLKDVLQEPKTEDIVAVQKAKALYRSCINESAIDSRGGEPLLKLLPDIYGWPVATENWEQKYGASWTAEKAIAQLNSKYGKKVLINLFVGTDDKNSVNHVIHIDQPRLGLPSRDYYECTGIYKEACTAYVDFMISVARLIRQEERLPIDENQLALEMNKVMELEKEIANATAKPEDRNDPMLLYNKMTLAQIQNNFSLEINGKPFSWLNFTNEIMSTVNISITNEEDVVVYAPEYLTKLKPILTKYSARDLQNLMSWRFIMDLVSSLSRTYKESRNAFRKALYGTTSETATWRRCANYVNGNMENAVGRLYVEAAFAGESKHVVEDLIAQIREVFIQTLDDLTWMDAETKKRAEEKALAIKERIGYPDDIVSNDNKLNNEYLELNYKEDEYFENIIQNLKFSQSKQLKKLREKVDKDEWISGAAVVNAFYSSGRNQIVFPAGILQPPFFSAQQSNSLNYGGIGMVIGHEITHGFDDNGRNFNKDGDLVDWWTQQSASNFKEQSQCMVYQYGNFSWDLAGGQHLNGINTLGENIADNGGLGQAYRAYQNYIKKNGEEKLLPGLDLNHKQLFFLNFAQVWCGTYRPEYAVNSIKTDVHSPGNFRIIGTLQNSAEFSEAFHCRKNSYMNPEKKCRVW

SMILES	melting point [°C]	IC50 [1] [nM]	selectivity for NEP over SEP [2] [fold]
CCc1nc2ccc(CCCNC(=O)C3(CCC(=O)O)CCCC3)cc2s1 [Example 2, 3-(1-{[3-(2-ethyl-1,3-benzothiazol-6-yl)propyl]carbamoyl}cyclopentyl)propanoic acid]	127.5 to 129.5		
Cc1nc2ccc(CCCNC(=O)C3(C[C@@H](C)C(=O)O)CCCC3)cc2s1 [Example 1, (R)-2-Methyl-3-(1-{[3-(2-methyl-1,3-benzothiazol-6-yl)propyl]carbamoyl}cyclopentyl)propanoic acid]	105 to 106	1	1900
